Results reported in US12590099B2, “Inhibitors of histone deacetylase useful for the treatment or prevention of HIV infection” (Merck Sharp & Dohme LLC, priority 2018, dated 2026).
Like-named read-outs stand apart in the source and are kept apart here.

Tests used:
Recombinant human HDAC2 = target: T1, Recombinant human HDAC2 (Homo sapiens, UniProt Q92769); experiment: Human HDAC enzyme inhibitor Fluor-de-Lys assay, HDAC2; format: biochemical; details: recombinant human HDAC2, Fluor-de-Lys assay
T1 construct: Full length human HDAC2-FLAG was expressed in baculovirus infected Sf9 cells; FLAG (C); made in house; host or cells: Sf9 (baculovirus)
Procedure, shortened: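 Fluor-de-Lys format at room temperature (23° C.): compounds titrated 10-point, 1:3, preincubated with HDAC before substrate addition. Developer with excess HDAC inhibitor ends the reaction, and trypsin-liberated AMC fluorescence is the read-out.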

KARN cells (Jurkat 2C4) = experiment: cells; format: cell-based; details: Homo sapiens, Jurkat, luciferase induction, 100% = 2 μM SAHA
Procedure, shortened: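 Jurkat 2C4 (KARN) cells dosed with test compounds up to 40 μM final, 0.4% DMSO, overnight at 5% CO2; luciferase read by Steady-Glo luminescence after 10 min at room temperature. DMSO set as 0% and 2 μM SAHA as 100% induction; 4-parameter fit of percent activation.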

[1] = read-out: Karn EC50 (nM) 0.1% NHS, 0.1% normal human serum
[2] = read-out: Karn EC50 (nM) 5% NHS, 5% normal human serum

T1 sequence (Q92769 whole entry): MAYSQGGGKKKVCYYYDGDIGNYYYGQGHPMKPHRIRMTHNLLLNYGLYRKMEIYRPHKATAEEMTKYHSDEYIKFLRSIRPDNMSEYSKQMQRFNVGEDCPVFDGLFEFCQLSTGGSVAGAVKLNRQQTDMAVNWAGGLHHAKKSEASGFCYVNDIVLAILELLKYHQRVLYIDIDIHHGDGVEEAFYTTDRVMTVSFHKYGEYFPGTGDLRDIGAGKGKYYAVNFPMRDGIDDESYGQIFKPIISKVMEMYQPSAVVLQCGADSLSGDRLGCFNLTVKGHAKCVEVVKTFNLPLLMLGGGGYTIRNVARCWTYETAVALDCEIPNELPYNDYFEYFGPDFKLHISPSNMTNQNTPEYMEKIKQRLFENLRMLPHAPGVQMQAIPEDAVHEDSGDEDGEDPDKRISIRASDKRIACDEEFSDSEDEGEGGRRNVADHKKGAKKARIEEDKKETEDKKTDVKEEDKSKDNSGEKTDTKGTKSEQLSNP

| Structure (SMILES) | IC50 (Recombinant human HDAC2) [µM] | EC50 (KARN cells (Jurkat 2C4); [1]) [nM] | EC50 (KARN cells (Jurkat 2C4); [2]) [nM] |
| --- | --- | --- | --- |
| CCC(=O)CCCCC[C@H](NC(=O)CC1CC2(C1)CN(C)C2)c1ncc(-c2cc3ccccc3nc2O)[nH]1 [Compound 326] | 0.009 | 2400 | 3820 |
| CCC(=O)CCCCC[C@H](NC(=O)[C@H]1CC12CCN(CC)CC2)c1ncc(-c2cnc3cc(C(F)(F)F)ccc3c2)[nH]1 [Compound 341] | 0.0025 | 44 | 70 |
| CCC(=O)CCCCC[C@H](NC(=O)[C@H]1CC12CCN(C)CC2)c1ncc(-c2ccc3ccc(C)nc3c2F)[nH]1 [Compound 354] | 0.0113 | 264 | 295 |
| CCC(=O)CCCCCC(NC(=O)C1CCC2(CC1)OC(=O)c1ccncc12)c1nnc(-c2cc3ccccc3nc2OC)o1 (stereo not drawn) [Compound 363] | 0.234 | 2080 | 4810 |
| CCC(=O)CCCCCC(NC(=O)C1CCC2(CC1)OC(=O)c1cnccc12)c1nnc(-c2cc3ccccc3nc2OC)o1 (stereo not drawn) [Compound 364] | 0.248 | 1770 | 4310 |
